One block for each molecule: values may come before it.
What was measured:
[1] = molecular target: T1, Palmitoyl-protein thioesterase ABHD10, mitochondrial (Homo sapiens, UniProt Q9NUJ1); test: Inhibition of ABHD10 (unknown origin)
T1 sequence (Q9NUJ1 whole entry): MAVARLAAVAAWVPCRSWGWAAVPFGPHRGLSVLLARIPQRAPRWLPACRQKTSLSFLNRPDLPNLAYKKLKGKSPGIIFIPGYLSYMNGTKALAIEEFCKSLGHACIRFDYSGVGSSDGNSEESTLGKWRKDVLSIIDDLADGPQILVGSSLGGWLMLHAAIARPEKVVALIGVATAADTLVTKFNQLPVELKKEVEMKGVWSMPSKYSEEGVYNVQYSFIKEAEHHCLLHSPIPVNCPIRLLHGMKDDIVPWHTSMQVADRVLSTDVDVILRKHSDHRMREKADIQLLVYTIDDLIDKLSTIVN

[2] = molecular target: Acyl-protein thioesterase 2 (Homo sapiens, UniProt O95372); test: Inhibition of APT2 (unknown origin)
[3] = molecular target: T2, Phosphatidylserine lipase ABHD16A (Homo sapiens, UniProt O95870); test: Inhibition of recombinant human ABHD16A expressed in HEK293T cells incubated for 1 hr by fluorescence based analysis; assay type: cell-based
T2 sequence (O95870 whole entry): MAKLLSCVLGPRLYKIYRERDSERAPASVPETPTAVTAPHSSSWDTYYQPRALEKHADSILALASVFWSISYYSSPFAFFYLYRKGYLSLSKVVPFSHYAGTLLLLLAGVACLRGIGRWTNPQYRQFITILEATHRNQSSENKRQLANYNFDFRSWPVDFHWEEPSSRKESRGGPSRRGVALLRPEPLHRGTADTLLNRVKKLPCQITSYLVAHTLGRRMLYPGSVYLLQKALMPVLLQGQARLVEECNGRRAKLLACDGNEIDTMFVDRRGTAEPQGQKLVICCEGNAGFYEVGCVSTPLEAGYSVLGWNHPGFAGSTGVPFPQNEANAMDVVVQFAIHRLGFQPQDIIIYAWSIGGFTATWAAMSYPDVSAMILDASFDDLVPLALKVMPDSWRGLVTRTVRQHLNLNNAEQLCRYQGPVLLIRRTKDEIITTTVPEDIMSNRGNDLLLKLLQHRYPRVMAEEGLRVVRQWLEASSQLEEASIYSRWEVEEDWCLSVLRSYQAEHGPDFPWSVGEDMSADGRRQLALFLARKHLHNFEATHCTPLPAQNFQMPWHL

[4] = Inhibition of Wnt/beta-catenin signalling in HEK293 cells assessed as reduction in luciferase activity incubated for 24 hrs by TOPFlash luciferase reporter assay; assay type: cell-based; details: Homo sapiens, HEK293, 24 h
[5] = organism: Homo sapiens; test: Inhibition of ZDHHC (unknown origin) at 20 uM relative to control
[6] = molecular target: T3, Membrane-bound ghrelin O-acyltransferase MBOAT4 (Homo sapiens, UniProt Q96T53); test: Inhibition of GOAT (unknown origin)
T3 sequence (Q96T53 whole entry): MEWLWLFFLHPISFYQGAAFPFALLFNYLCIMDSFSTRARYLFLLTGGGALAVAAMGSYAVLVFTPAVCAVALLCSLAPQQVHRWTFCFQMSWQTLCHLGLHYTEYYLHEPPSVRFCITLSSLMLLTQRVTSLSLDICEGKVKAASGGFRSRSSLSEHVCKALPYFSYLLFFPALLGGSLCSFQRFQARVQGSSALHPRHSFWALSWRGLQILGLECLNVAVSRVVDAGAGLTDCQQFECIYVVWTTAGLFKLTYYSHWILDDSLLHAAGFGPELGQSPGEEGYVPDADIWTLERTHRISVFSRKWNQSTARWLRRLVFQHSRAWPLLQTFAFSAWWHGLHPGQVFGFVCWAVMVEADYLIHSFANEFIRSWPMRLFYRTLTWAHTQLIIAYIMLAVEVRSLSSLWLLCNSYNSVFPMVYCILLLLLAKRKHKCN

[7] = Inhibition of SPT (unknown origin); set-up: species or system Homo sapiens
[8] = molecular target: Serine palmitoyltransferase 3 (Homo sapiens, UniProt Q9NUV7); test: Inhibition of SPTLC3 (unknown origin)
[9] = test system: HCC4006; test: cells; details: Homo sapiens, HCC4006, 24 h
[10] = molecular target: T4, Membrane-bound ghrelin O-acyltransferase MBOAT4 (Mus musculus, UniProt P0C7A3); test: Inhibition of N-terminal His-tagged mouse GOAT expressed in baculovirus infected insect cells
T4 sequence (P0C7A3 whole entry): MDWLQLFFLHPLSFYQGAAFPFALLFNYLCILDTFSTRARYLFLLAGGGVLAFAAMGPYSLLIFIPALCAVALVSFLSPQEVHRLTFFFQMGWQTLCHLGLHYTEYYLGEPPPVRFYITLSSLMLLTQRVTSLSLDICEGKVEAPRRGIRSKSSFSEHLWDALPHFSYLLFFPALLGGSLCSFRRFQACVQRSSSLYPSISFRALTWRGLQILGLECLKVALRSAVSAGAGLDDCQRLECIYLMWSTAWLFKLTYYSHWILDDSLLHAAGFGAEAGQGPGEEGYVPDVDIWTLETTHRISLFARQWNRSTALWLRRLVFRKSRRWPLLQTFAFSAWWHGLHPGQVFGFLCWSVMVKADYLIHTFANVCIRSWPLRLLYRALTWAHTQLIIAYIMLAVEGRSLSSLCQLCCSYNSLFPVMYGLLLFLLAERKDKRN

Acyl-protein thioesterase 2, sequence (O95372 whole entry): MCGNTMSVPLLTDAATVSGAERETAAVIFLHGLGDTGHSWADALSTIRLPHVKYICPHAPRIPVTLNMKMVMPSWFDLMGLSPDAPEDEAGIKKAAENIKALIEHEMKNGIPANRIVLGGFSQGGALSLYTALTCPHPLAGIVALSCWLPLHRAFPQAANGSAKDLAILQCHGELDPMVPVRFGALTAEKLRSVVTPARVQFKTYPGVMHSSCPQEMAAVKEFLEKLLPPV
Serine palmitoyltransferase 3, sequence (Q9NUV7 whole entry): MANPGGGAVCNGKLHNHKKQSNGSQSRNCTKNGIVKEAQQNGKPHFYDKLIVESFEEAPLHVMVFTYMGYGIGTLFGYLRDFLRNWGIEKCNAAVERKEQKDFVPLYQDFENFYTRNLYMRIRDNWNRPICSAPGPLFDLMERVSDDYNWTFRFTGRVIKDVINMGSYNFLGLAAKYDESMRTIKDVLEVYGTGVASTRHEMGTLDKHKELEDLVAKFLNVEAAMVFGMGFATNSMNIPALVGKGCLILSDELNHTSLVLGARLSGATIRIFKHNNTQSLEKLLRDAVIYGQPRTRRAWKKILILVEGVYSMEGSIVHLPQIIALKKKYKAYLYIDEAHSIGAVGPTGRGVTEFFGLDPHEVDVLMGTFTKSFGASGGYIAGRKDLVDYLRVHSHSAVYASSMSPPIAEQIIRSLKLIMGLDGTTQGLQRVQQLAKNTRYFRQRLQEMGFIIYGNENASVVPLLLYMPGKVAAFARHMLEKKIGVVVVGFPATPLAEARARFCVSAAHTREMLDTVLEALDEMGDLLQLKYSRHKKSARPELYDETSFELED

IC50 [1]: 210 nM
SMILES: CC[C@@]1(c2cccc(C)c2)C(=O)N(C(=O)OC)N1C(=O)OC

IC50 [4]: 710 nM
SMILES: CCc1cc(=O)oc2c(C)c(OCC(=O)Nc3ccc(N4CCCCC4)cc3)ccc12

IC50 [4]: 15 nM
SMILES: Cc1ccc2nc(NC(=O)CSc3nc4c(c(=O)n3C)SC(C)C4)sc2c1 (configuration not stated)

IC50 [6]: 1500 nM
SMILES: CCCCCCCC(C)(O)/C=C/[C@H](NC(=O)OCc1ccccc1)C(=O)OC (some centres not stated)

IC50 [8]: 4 nM
SMILES: COc1ccc(C(=O)N2CC[C@H](NC(=O)c3ccccc3Cl)c3c2cnn3C(C)C)cc1OC

IC50 [9]: 3.9 nM
SMILES: COc1cc(C(=O)N2CC[C@H](NC(=O)c3ccccc3OC(F)(F)F)c3c2cnn3C(C)C)cnc1OC

IC50 [1]: 100 nM
SMILES: COc1ccc([C@@]23Oc4cc(OC)cc(OC)c4[C@]2(O)[C@@H]2OC(=O)[C@@H]2[C@H]3c2ccccc2)cc1

IC50 [4]: 28 nM
SMILES: Cc1ccc2nc(NC(=O)CSc3nc4c(c(=O)n3-c3ccccc3)SCC4)sc2c1

IC50 [4]: 58 nM
SMILES: COc1ccc(-n2nc(C(=O)NCC(=O)Nc3nc4ccc(OC)cc4s3)c3ccccc3c2=O)cc1

Second part, the molecule before the results:

SMILES: CCCCCCCCCC[C@@H]1OC(=O)[C@H]1CCCCS(=O)(=O)CCCN(C)C
IC50 [2]: 36.7 nM

SMILES: COc1nn(-c2ccc(F)cc2)c(=O)o1
IC50 [3]: 30 nM

SMILES: C=CC(=O)N(C)CCCCCCCCCCCCCC
inhibition [5]: 67.3%

SMILES: CCOc1ccc(NC(=O)CSc2nnc(-c3ccncc3)n2-c2ccccc2)cc1
IC50 [4]: 90 nM

SMILES: Cc1nc(N)c2c(CCc3ccc(C(=O)O)cc3)coc2n1
IC50 [6]: 170 nM

SMILES: CCCCCC[C@@H](O)CCCCCC/C=C/[C@H](OC(C)=O)[C@@H](O)[C@H](O)[C@H](N)C(=O)O
IC50 [7]: 100 nM

SMILES: CCCCCCCCN(C(C)=O)C(C(=O)NCc1ccccc1)c1ccc2cc(O)ccc2c1 (configuration not stated)
IC50 [10]: 13100 nM

SMILES: CCCCCCCCCCCCCC1OC(=O)/C1=C\CCCCC(N)=O (configuration not stated)
IC50 [3]: 200 nM

SMILES: CCCCCC[C@@H](O)CCCCCCCCC[C@H](CO)C(=O)O
IC50 [7]: 24 nM

SMILES: CC(C)CCCC(=O)CCCCCCC(=O)CCN(O)C(=O)[C@@H](N)CO
IC50 [7]: 21 nM

SMILES: C#CCCCN(C)CCCS(=O)(=O)CCCC[C@@H]1C(=O)O[C@H]1CCCCCCCCCC
IC50 [2]: 64.4 nM

SMILES: NC(=O)CCCC/C=C1\C(=O)OC1CCc1ccccc1 (configuration not stated)
IC50 [3]: ≥ 10000 nM

SMILES: Cn1nc(C(F)(F)F)cc1C(=O)N[C@@H]1CCN(C(=O)c2cc(Cl)c3nccnc3c2)C[C@@H]1c1ccccc1
IC50 [9]: 11 nM

Source: ChEMBL document CHEMBL5523703, “Modulators for palmitoylation of proteins and small molecules” (Eur J Med Chem, 2024)
